12 compounds from US9603889B2, “IAP antagonists” (BRISTOL-MYERS SQUIBB COMPANY, priority 2012, dated 2017) can be followed below.

For orientation: IC50 means the concentration needed to halve the response being measured.

For the experiment, the target named is XIAP BIR3 (N-His-Tb-BIR3(241-356, XIAP)) (Homo sapiens (Human), UniProt P98170). The experiment is classed as binding. To be noted: 130 nM N-His-Tb-BIR3(241-356, XIAP), 1.4 nM fluoresceinated modified SMAC peptide, 60 minutes room temperature; read-out: XIAP BIR3 FPA IC50.
Sequence of XIAP BIR3 (N-His-Tb-BIR3(241-356, XIAP)) (P98170 241-356): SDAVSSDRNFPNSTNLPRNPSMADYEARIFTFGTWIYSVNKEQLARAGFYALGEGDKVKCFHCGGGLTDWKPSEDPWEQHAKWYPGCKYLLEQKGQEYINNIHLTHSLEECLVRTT
Consider `CN[C@@H](C)C(=O)N[C@H](C(=O)N1C[C@@H](NC(=O)c2ccc(CN(C(=O)[C@@H]3Cc4ccccc4CN3C(=O)[C@@H](NC(=O)[C@H](C)NC)C(C)(C)C)[C@H](C)Cc3ccccc3F)cc2)C[C@H]1C(=O)N[C@@H]1CCCc2ccccc21)C(C)(C)C` [Example 25, (S)-2-((S)-3,3-Dimethyl-2-((S)-2-(methylamino)propanamido)butanoyl)-N-(4-(((3S,5S)-1-((S)-3,3-dimethyl-2-((S)-2-(methylamino)propanamido)butanoyl)-5-(((R)-1,2,3,4-tetrahydro-naphthalen-1-yl)carbamoyl)pyrrolidin-3-yl)carbamoyl)benzyl)-N-((R)-1-(2-fluorophenyl)propan-2-yl)-1,2,3,4-tetrahydro-isoquinoline-3-carboxamide], for which the IC50 was found to be 60 nM.

Take `CN[C@@H](C)C(=O)N[C@H](C(=O)N1CC(NC(=O)c2ccc(CN(C(=O)[C@@H]3Cc4ccccc4CN3C(=O)[C@@H](NC(=O)[C@H](C)NC)C(C)(C)C)C(C)c3ccccc3Cl)cc2)C[C@H]1C(=O)NC1CCCc2ccccc21)C(C)(C)C` (stereo partly drawn) [Example 26, (3S)-N-(1-(2-Chlorophenyl)ethyl)-2-((S)-3,3-dimethyl-2-((S)-2-(methylamino)propanamido)butanoyl)-N-(4-(((3S,5S)-1-((S)-3,3-dimethyl-2-((S)-2-(methylamino)propanamido)butanoyl)-5-(((R)-1,2,3,4-tetrahydro-naphthalen-1-yl)carbamoyl)pyrrolidin-3-yl)carbamoyl)benzyl)-1,2,3,4-tetra-hydroisoquinoline-3-carboxamide]: the IC50 is 190 nM.

Regarding `CN[C@@H](C)C(=O)N[C@H](C(=O)N1CCc2ccccc2[C@H]1C(=O)N(Cc1ccc(C(=O)N[C@H]2C[C@@H](C(=O)N[C@@H]3CCCc4ccccc43)N(C(=O)[C@@H](NC(=O)[C@H](C)NC)C(C)(C)C)C2)cc1)[C@H](C)Cc1ccccc1F)C(C)(C)C` [Example 27, (S)-2-((S)-3,3-Dimethyl-2-((S)-2-(methylamino)propanamido)butanoyl)-N-(4-(((3S,5S)-1-((S)-3,3-dimethyl-2-((S)-2-(methylamino)propanamido)butanoyl)-5-(((R)-1,2,3,4-tetrahydro-naphthalen-1-yl)carbamoyl)pyrrolidin-3-yl)carbamoyl)benzyl)-N-((R)-1-(2-fluorophenyl)propan-2-yl)-1,2,3,4-tetrahydro-isoquinoline-1-carboxamide], the IC50 amounted to 90 nM.

As to `CN[C@@H](C)C(=O)N[C@H](C(=O)N1C[C@@H](NC(=O)c2ccc(CN(C(=O)[C@@H]3Cc4ccccc4CN3C(=O)[C@@H](NC(=O)[C@H](C)NC)C(C)(C)C)[C@H](C)c3ccccc3C)cc2)C[C@H]1C(=O)N[C@@H]1CCCc2ccccc21)C(C)(C)C` [Example 28, (S)-2-((S)-3,3-Dimethyl-2-((S)-2-(methylamino)propanamido)butanoyl)-N-(4-(((3S,5S)-1-((S)-3,3-dimethyl-2-((S)-2-(methylamino)propanamido)butanoyl)-5-(((R)-1,2,3,4-tetra-hydronaphthalen-1-yl)carbamoyl)pyrrolidin-3-yl)carbamoyl)benzyl)-N-((R)-1-(o-tolyl)ethyl)-1,2,3,4-tetrahydro-isoquinoline-3-carboxamide], the IC50 came to 160 nM.

On to `CCOc1ccccc1[C@@H](C)N(Cc1ccc(C(=O)N[C@H]2C[C@@H](C(=O)N[C@@H]3CCCc4ccccc43)N(C(=O)[C@@H](NC(=O)[C@H](C)NC)C(C)(C)C)C2)cc1)C(=O)[C@@H]1Cc2ccccc2CN1C(=O)[C@@H](NC(=O)[C@H](C)NC)C(C)(C)C` [Example 29, (S)-2-((S)-3,3-Dimethyl-2-((S)-2-(methylamino)propanamido)butanoyl)-N-(4-(((3S,5S)-1-((S)-3,3-dimethyl-2-((S)-2-(methyl-amino)propanamido)butanoyl)-5-(((R)-1,2,3,4-tetra-hydronaphthalen-1-yl)carbamoyl)pyrrolidin-3-yl)carbamoyl)benzyl)-N-((R)-1-(2-ethoxyphenyl)ethyl)-1,2,3,4-tetrahydro-isoquinoline-3-carboxamide], for which the IC50 worked out at 160 nM.

Regarding `CN[C@@H](C)C(=O)N[C@H](C(=O)N1Cc2ccccc2C[C@H]1CN(C(=O)c1ccc(C(=O)N[C@H]2C[C@@H](C(=O)N[C@@H]3CCCc4ccccc43)N(C(=O)[C@@H](NC(=O)[C@H](C)NC)C(C)(C)C)C2)cc1)[C@H](C)Cc1ccc2ccccc2c1)C(C)(C)C` [Example 30, N^1-(((S)-2-((S)-3,3-Dimethyl-2-((S)-2-(methylamino)propanamido)butanoyl)-1,2,3,4-tetrahydro-isoquinolin-3-yl)methyl)-N^4-((3S,5S)-1-((S)-3,3-dimethyl-2-((S)-2-(methylamino)propanamido)butanoyl)-5-(((R)-1,2,3,4-tetrahydro-naphthalen-1-yl)carbamoyl)pyrrolidin-3-yl)-N^1-((R)-1-(naphthalen-2-yl)propan-2-yl) terephthalamide], the IC50 is 270 nM.

`CN[C@@H](C)C(=O)N[C@H](C(=O)N1Cc2ccccc2C[C@H]1CN(C(=O)c1ccc(C(=O)N[C@H]2C[C@@H](C(=O)N[C@@H]3CCCc4ccccc43)N(C(=O)[C@@H](NC(=O)[C@H](C)NC)C(C)(C)C)C2)cc1)[C@H](C)c1ccc2ccccc2c1)C(C)(C)C` [Example 31, N^1-(((S)-2-((S)-3,3-Dimethyl-2-((S)-2-(methylamino)propanamido)butanoyl)-1,2,3,4-tetrahydro-isoquinolin-3-yl)methyl)-N^4-((3S,5S)-1-((S)-3,3-dimethyl-2-((S)-2-(methyl-amino)propanamido)butanoyl)-5-(((R)-1,2,3,4-tetrahydro-naphthalen-1-yl)carbamoyl)pyrrolidin-3-yl)-N^1-((R)-1-(naphthalen-2-yl)ethyl) terephthalamide]: the IC50 is 250 nM.

As to `CN[C@@H](C)C(=O)N[C@H](C(=O)N1Cc2ccccc2C[C@H]1CN(CCc1cccc2ccccc12)C(=O)c1ccc(C(=O)N[C@H]2C[C@@H](C(=O)N[C@@H]3CCCc4ccccc43)N(C(=O)[C@@H](NC(=O)[C@H](C)NC)C(C)(C)C)C2)cc1)C(C)(C)C` [Example 33, N^1-(((S)-2-((S)-3,3-Dimethyl-2-((S)-2-(methylamino)propanamido)butanoyl)-1,2,3,4-tetrahydro-isoquinolin-3-yl)methyl)-N^4-((3S,5S)-1-((S)-3,3-dimethyl-2-((S)-2-(methylamino)propanamido)butanoyl)-5-(((R)-1,2,3,4-tetrahydro-naphthalen-1-yl)carbamoyl)pyrrolidin-3-yl)-N^1-(2-(naphthalen-1-yl)ethyl) terephthalamide], the IC50 was 120 nM.

As for `CN[C@@H](C)C(=O)N[C@H](C(=O)N1Cc2ccccc2C[C@H]1CN(Cc1cccc2ccccc12)C(=O)c1ccc(C(=O)N[C@H]2C[C@@H](C(=O)N[C@@H]3CCCc4ccccc43)N(C(=O)[C@@H](NC(=O)[C@H](C)NC)C(C)(C)C)C2)cc1)C(C)(C)C` [Example 34, N^1-(((S)-2-((S)-3,3-Dimethyl-2-((S)-2-(methylamino)propanamido)butanoyl)-1,2,3,4-tetrahydro-isoquinolin-3-yl)methyl)-N^4-((3S,5S)-1-((S)-3,3-dimethyl-2-((S)-2-(methylamino)propanamido)butanoyl)-5-(((R)-1,2,3,4-tetrahydro-naphthalen-1-yl)carbamoyl)pyrrolidin-3-yl)-N^1-(naphthalen-1-ylmethyl) terephthalamide], the IC50 stood at 160 nM.

As for `CN[C@@H](C)C(=O)N[C@H](C(=O)N1Cc2ccccc2C[C@H]1CN(Cc1cccc(C)c1C)C(=O)c1ccc(C(=O)Nc2ccc3c(c2)CN(C(=O)[C@@H](NC(=O)[C@H](C)NC)C(C)(C)C)[C@H](C(=O)N[C@@H]2CCCc4ccccc42)C3)cc1)C(C)(C)C` [Example 35, N^1-(((S)-2-((S)-3,3-Dimethyl-2-((S)-2-(methylamino)propanamido)butanoyl)-1,2,3,4-tetra-hydroisoquinolin-3-yl)methyl)-N^4-((S)-2-((S)-3,3-dimethyl-2-((S)-2-(methylamino)propanamido)butanoyl)-3-(((R)-1,2,3,4-tetrahydro-naphthalen-1-yl)carbamoyl)-1,2,3,4-tetra-hydroisoquinolin-7-yl)-N^1-(2,3-dimethylbenzyl) terephthalamide], the IC50 was 230 nM.

For `CN[C@@H](C)C(=O)N[C@H](C(=O)N1Cc2ccccc2C[C@H]1CN(Cc1cccc(C)c1C)C(=O)c1ccc(C(=O)N[C@H]2C[C@@H](C(=O)N[C@@H]3CCCc4ccccc43)N(C(=O)[C@@H](NC(=O)[C@H](C)NC)C(C)(C)C)C2)cc1)C(C)(C)C` [Example 36, N^1-(((S)-2-((S)-3,3-Dimethyl-2-((S)-2-(methylamino)propanamido)butanoyl)-1,2,3,4-tetrahydro-isoquinolin-3-yl)methyl)-N^4-((3S,5S)-1-((S)-3,3-dimethyl-2-((S)-2-(methylamino)propanamido)butanoyl)-5-(((R)-1,2,3,4-tetrahydro-naphthalen-1-yl)carbamoyl)pyrrolidin-3-yl)-N^1-(2,3-dimethyl-benzyl) terephthalamide], the concentration for half-maximal inhibition (IC50) was determined as 90 nM.

Take `CN[C@@H](C)C(=O)N[C@H](C(=O)N1Cc2ccccc2C[C@H]1CN(C(=O)c1ccc(C(=O)N[C@H]2C[C@@H](C(=O)N[C@@H]3CCCc4ccccc43)N(C(=O)[C@@H](NC(=O)[C@H](C)NC)C(C)(C)C)C2)cc1)[C@H](C)c1ccccc1F)C(C)(C)C` [Example 37, N^1-(((S)-2-((S)-3,3-Dimethyl-2-((S)-2-(methylamino)propanamido)butanoyl)-1,2,3,4-tetrahydro-isoquinolin-3-yl)methyl)-N^4-((3S,5S)-1-((S)-3,3-dimethyl-2-((S)-2-(methylamino)propanamido)butanoyl)-5-(((R)-1,2,3,4-tetrahydro-naphthalen-1-yl)carbamoyl)pyrrolidin-3-yl)-N^1-((R)-1-(2-fluorophenyl)ethyl) terephthalamide]: the half-maximal inhibitory concentration (IC50) is 230 nM.
